Laboratory results from patent publication US8361780B2, “Biological system and assay for identifying modulators of tubulin ligases” (University of Georgia Research Foundation, Inc., priority 2005, dated 2013).

Tests used:
[1] = test system: zebrafish embryos; test: Morphology of zebrafish morphant embryos; conditions: in vivo
Text: (§1) MO Knockdowns in Zebrafish Embryos. TTLL3-ATG MO (5′ […] 3′; SEQ ID NO:129) and TTLL3-SP MO (5′ […] 3; SEQ ID NO:130) were obtained from Open Biosystems (Huntsville, AL). TTLL3-ATG targets the translation initiation site of ttll3 mRNA. TTLL3-SP is predicted to prevent splicing of exon 11 and cause a frame shift in exon 12. This would eliminate the coding sequence downstream of exon 10, which includes a conserved catalytic domain-encoding region. To evaluate the effect of TTLL3-SP on ttll3 mRNA, total RNA was isolated with TRIzol reagent (Invitrogen, Inc., Carlsbad, Calif.) from embryos at 7 hpf: 50 uninjected control embryos, 40 embryos injected with 3 ng TTLL3-SP MO, or 30 embryos injected with 5 ng TTLL3-SP MO. Total RNA ([…]) was used as a template for cDNA synthesis with random hexamers and oligo-dT primers and the iScript TM cDNA synthesis kit (Bio-Rad Laboratories, Hercules, Calif.). cDNA ([…]) was amplified with the following primers spanning exon 11: TTLL3-splice F, 5′-[…]-3′ (exon 10; SEQ ID NO:131); TTLL3-splice R, 5′-[…]-3′ (exon 12; SEQ ID NO:132). As expected, primers flanking exon 11 produced a shorter product in RT-PCR from embryos injected with TTLL3-SP than in controls (FIG. 50D). […] As a negative control, we injected 25 base MOs with a random base mixture at each position (Gene Tools, Inc., Philomath, Oreg.).

[2] = test system: ttll3 mRNA; test: RT-PCR assay for TTLL3 mRNA in injected zebrafish embryos; format: in vivo; conditions: embryos at 7 hpf, 3 or 5 ng
Text: as §1

[3] = test system: zebrafish embryos; test: Heart position in zebrafish embryos, scoring live embryos; format: in vivo
Text: as §1

[4] = test system: zebrafish embryos; test: Heart position in zebrafish embryos, in situ hybridization; format: in vivo
Text: as §1
(§2) Microscopy of Zebrafish. For whole-mount, in situ hybridization, embryos were fixed as previously described (Hagos and Dougan, 2007), stored in 100% methanol at −20° C., and stained with spaw, lefty1, lefty2, and cmlc2 probes (Yelon, 2001). Embryos were photographed under differential interference contrast with a Zeiss Axioplan 2 microscope with Slidebook (Intelligent Imaging Innovations, Denver, Colo.). For immunofluorescence, the embryos were manually dechorionated and fixed with 0.5% Triton X-100 and 4% paraformaldehyde in PBT (0.1% Tween-20 in PBS) at 4° C. overnight. After washing with PBT, embryos were dehydrated in methanol/PBT series and incubated overnight in 100% methanol at −20° C. After rehydration, embryos were blocked for 1-2 hr in 2% BSA, 0.5% normal goat serum,l%DMSO, 0.5% Triton X-100 in PBS, and incubated overnight at 4° C. with one of the following antibodies: 6-11 B-1 (1:1000); TAP952 (1:2000); AXO49 (1:2000); and GT335 (1:1000); polyE (1:500). After washing 3×10 min with 0.5% Triton X-100 in PBS, embryos were incubated overnight at 4° C. in anti-mouse-IgG-FITC or anti-rabbit-IgG-Cy3 (1:500; Zymed), washed (3×10 min), mounted in 100 mg/ml of DABCO (Sigma-Aldrich) in PBS, and examined on a Leica TCS SP confocal microscope.

[5] = test system: zebrafish embryos; test: Expression pattern of lefty2 in zebrafish embryos (in situ hybridization); format: in vivo
Text: as §1, §2

[6] = test system: zebrafish embryos; test: Expression pattern of southpaw in zebrafish embryos (in situ hybridization); format: in vivo
Text: as §1, §2

[7] = test system: zebrafish embryos; test: Tubulin monoglycylation in cilia of zebrafish embryos (TAP952 immunofluorescence); format: in vivo; conditions: 72 hpf; TTLL3-ATG MO 1 ng, TTLL3-SP MO 3 ng
Text: as §1, §2

For “TTLL3-SP-MO: antisense morpholino 5′ GATGTACAGAGCTGAGATTGAAAAG 3; blocks splicing at the intron 10/exon 11 junction of ttll3 mRNA (all phosphorodiamidate morpholino (PMO))”, which hydrocephalic morphants [1] is on record?
Its hydrocephalic morphants is 81%.

And the “morphant embryos with curly tail” value [1]?
Its value is 64.3%.

What about the “levels of endogenous TTLL3 mRNA” value [2] of the same substance?
Its value is “dramatic reduction”.

And the “heart position left, number of embryos” value [3]?
The value was 21.

What about the “heart position left, percent of embryos” value [3] of the same substance?
Its value is 64%.

What about the “heart position middle, number of embryos” value [3] of the same substance?
Its value is 8.

And the “heart position middle, percent of embryos” value [3]?
The value was 24%.

And the “heart position right, number of embryos” value [3]?
The value was 4.

And the “heart position right, percent of embryos” value [3]?
The value was “(12%)”.

And the “heart position left, number of embryos” value [4]?
The value was 23.

And the “heart position left, percent of embryos” value [4]?
The value was 57.5%.

And the “heart position middle, number of embryos” value [4]?
The value was 6.

And the “heart position middle, percent of embryos” value [4]?
The value was 15%.

And the “heart position right, number of embryos” value [4]?
The value was 11.

And the “heart position right, percent of embryos” value [4]?
Its value is “(27.5%)”.

And the “lefty2 expression: Bilatera or midline, number of embryos” value [5]?
Its value is 2.

What about the “lefty2 expression: Bilatera or midline, percent of embryos” value [5] of the same substance?
Its value is “(4.8%)”.

And the “lefty2 expression: No specific signal, number of embryos” value [5]?
The value was 16.

And the “lefty2 expression: No specific signal, percent of embryos” value [5]?
The value was “(38.1%)”.

And the “lefty2 expression: left, number of embryos” value [5]?
The value was 21.

What about the “lefty2 expression: left, percent of embryos” value [5] of the same substance?
The value was “(50%)”.

What about the “lefty2 expression: right, number of embryos” value [5] of the same substance?
Its value is 3.

And the “lefty2 expression: right, percent of embryos” value [5]?
The value was “(7.1%)”.

And the “southpaw expression: Bilatera or midline, number of embryos” value [6]?
Its value is 22.

What about the “southpaw expression: Bilatera or midline, percent of embryos” value [6] of the same substance?
Its value is “(53.7%)”.

What about the “southpaw expression: No specific signal, number of embryos” value [6] of the same substance?
Its value is 6.

And the “southpaw expression: No specific signal, percent of embryos” value [6]?
The value was “(14.6%)”.

And the “southpaw expression: left, number of embryos” value [6]?
The value was 12.

And the “southpaw expression: left, percent of embryos” value [6]?
The value was “(29.3%)”.

And the “southpaw expression: right, number of embryos” value [6]?
The value was 1.

What about the “southpaw expression: right, percent of embryos” value [6] of the same substance?
Its value is “(2.4%)”.

And the “levels of tubulin monoglycylation/glycylation in cilia” value [7]?
The value was “reduced”.
